# Measurements reported in ChEMBL document CHEMBL5247579, “Targeting PGAM1 in cancer: An emerging therapeutic opportunity” (Eur J Med Chem, 2022).
# Experiments:
# [1] = tested on: PC-9; assay: Antiproliferative activity against human PC-9 cells assessed as reduction in cell viability incubated for 72 hrs by CCK8 assay; format: functional, cell-based; conditions: PC-9, 72 h
# [2] = tested on: A549; assay: Antiproliferative activity against human A549 cells assessed as reduction in cell viability incubated for 72 hrs by CCK8 assay; format: functional, cell-based; conditions: A549, 72 h
# [3] = tested on: NCI-H1299; assay: Antiproliferative activity against human NCI-H1299 cells assessed as decrease in cell viability incubated for 72 hrs by trypan blue exclusion assay; format: functional, cell-based; conditions: NCI-H1299, 72 h
# [4] = tested on: KG-1a; assay: Antiproliferative activity against human KG-1a cells assessed as decrease in cell viability incubated for 72 hrs by trypan blue exclusion assay; format: functional, cell-based
# [5] = target: T1, Phosphoglycerate mutase 1 (Homo sapiens, UniProt P18669); assay: Inhibition of His-tagged recombinant PGAM1 (unknown origin) expressed in Escherichia coli BL21 assessed as decrease in absorbance from oxidation of NADH in presence of LDH, pyruvate kinase M1 and NADH by microplate reader assay
# [6] = tested on: MIA PaCa-2; assay: Antiproliferative activity against human MIA PaCa-2 cells assessed as reduction in cell viability incubated for 24 hrs by CCK-8 assay; format: functional, cell-based; conditions: MIA PaCa-2, 24 h
# [7] = target: T1, Phosphoglycerate mutase 1; assay: Inhibition of recombinant PGAM1 (unknown origin) assessed as decrease in absorbance in presence of LDH, pyruvate kinase M2 and NADH by spectroscopic analysis
# [8] = tested on: PANC-1; assay: Antiproliferative activity against human PANC-1 cells assessed as reduction in cell viability incubated for 24 hrs by CCK-8 assay; format: functional, cell-based; conditions: PANC-1, 24 h
# [9] = tested on: ASPC1; assay: Antiproliferative activity against human ASPC1 cells assessed as reduction in cell viability incubated for 24 hrs by CCK-8 assay; format: functional, cell-based; conditions: ASPC1, 24 h
# [10] = tested on: A549; assay: Antiproliferative activity against human A549 cells assessed as reduction in cell viability incubated for 72 hrs by MTT assay; format: functional, cell-based; conditions: A549, 72 h
# [11] = tested on: NCI-H1299; assay: Antiproliferative activity against human NCI-H1299 cells assessed as reduction in cell viability incubated for 72 hrs by MTT assay; format: functional, cell-based; conditions: NCI-H1299, 72 h
# [12] = tested on: HCC827; assay: Antitumor activity against human HCC827 cells assessed as reduction in cell viability incubated for 72 hrs by CCK-8 assay; format: functional, cell-based; conditions: HCC827, 72 h
# [13] = tested on: HCC827; assay: Antitumor activity against erlotinib-resistant human HCC827 cells assessed as reduction in cell viability incubated for 72 hrs by CCK-8 assay; format: functional, cell-based; conditions: HCC827, 72 h
# [14] = target: T1, Phosphoglycerate mutase 1; assay: Allosteric inhibition of PGAM1 (unknown origin) assessed as decrease in absorbance in presence of LDH, pyruvate kinase M2 and NADH by spectroscopic analysis
# [15] = tested on: A549; assay: Antitumor activity against human A549 cells assessed as reduction in cell viability incubated for 72 hrs by CCK-8 assay; format: functional, cell-based; conditions: A549, 72 h
# [16] = target: T1, Phosphoglycerate mutase 1; assay: Inhibition of human PGAM1 in human MDA-MB-231 cells assessed as decrease in PGAM1 activity incubated for 2 hrs by UV/Vis spectrophotometry; format: cell-based
# [17] = tested on: MDA-MB-231; assay: Antiproliferative activity against human MDA-MB-231 cells assessed as inhibition of cell proliferation incubated for 12 hrs by BrdU incorporation assay; format: functional, cell-based; conditions: MDA-MB-231, 12 h
# [18] = target: T1, Phosphoglycerate mutase 1; assay: Inhibition of His6-tagged human PGAM1 expressed in Escherichia coli BL21(DE3)pLysS cells assessed as decrease in autofluorescence from oxidation of NADH in presence of LDH and pyruvate kinase M1 by multiple enzymes coupled assay
# T1 sequence (P18669 whole entry): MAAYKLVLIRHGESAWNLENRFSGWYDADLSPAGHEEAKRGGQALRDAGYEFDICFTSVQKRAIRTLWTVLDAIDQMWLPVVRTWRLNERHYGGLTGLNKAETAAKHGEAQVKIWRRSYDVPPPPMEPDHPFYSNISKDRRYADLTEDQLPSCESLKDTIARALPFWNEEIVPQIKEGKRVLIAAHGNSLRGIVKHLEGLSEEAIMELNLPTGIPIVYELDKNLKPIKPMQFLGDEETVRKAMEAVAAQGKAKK
compound,measurement,setting,value
O=C1c2ccccc2C(=O)c2c1cc(S(=O)(=O)Nc1ccc(C(F)(F)F)cc1)c(O)c2O,EC50,[1],17.8 µM
same,EC50,[2],38.7 µM
same,EC50,[3],25.6 µM
same,EC50,[4],17.1 µM
[N-]=[N+]=NCCCCC(=O)Oc1ccccc1S(=O)(=O)Nc1cc2c(c(O)c1O)C(=O)c1ccccc1C2=O,IC50,[5],1.3 µM
O=C1c2ccccc2C(=O)c2c1cc(NS(=O)(=O)c1ccc(N3CCCC3)cc1)c(O)c2O,EC50,[6],0.271 µM
same,IC50,[7],0.105 µM
same,EC50,[8],0.501 µM
same,EC50,[9],0.51 µM
CN(C)c1ccc(S(=O)(=O)Nc2cc3c(c(O)c2O)C(=O)c2ccccc2C3=O)cc1,IC50,[7],0.77 µM
O=C1c2ccccc2C(=O)c2c1cc(NS(=O)(=O)O)c(O)c2O,IC50,[7],5.4 µM
CC(=O)Oc1ccccc1S(=O)(=O)Nc1cc2c(c(O)c1O)C(=O)c1ccccc1C2=O,IC50,[5],1 µM
O=C1c2ccccc2C(=O)c2c1cc(NS(=O)(=O)c1ccc(Cl)cc1)c(O)c2O,EC50,[10],12.7 µM
same,EC50,[11],6.9 µM
O=C1c2ccccc2C(=O)c2c1cc(NS(=O)(=O)c1ccc(N3CCC3)cc1)c(O)c2O,EC50,[12],1.71 µM
same,EC50,[13],1.02 µM
same,IC50,[14],0.85 µM
same,EC50,[15],5.62 µM
C#CCCCC(=O)OC(C)(C)C1CCCOC(OC(=O)N[C@@H](Cc2c[nH]c3ccccc23)C(=O)OCc2ccccc2)C1 (some centres not stated),EC50,[16],33 µM
same,IC50,[17],19 µM
O=C1c2ccccc2C(=O)c2c1ccc(O)c2O [ATHRAQUINONES A],IC50,[18],> 20 µM
same,EC50,[4],60.2 µM
